Reference: patent US20070190181A1, “Methods of treating cancer with lipid-based platinum compound forumulations administered intravenously” (priority 2005, published 2007)

Experiments:
[1] = Nephrotoxicity at MTD (BUN and kidney pathology grading); assay type: in vivo; settings: four days after injection
Excerpt: Nephrotoxicity. ICR mice, 7 weeks old, female, were divided into 4 groups with 3 to 4 mice in each. […] Four days after the injection, the mice were euthanized with Nembutal ip. The blood was drawn and the serum was isolated. The blood urea nitrogen (BUN) was quantitatively measured with a calorimetric method at Antech Diagnostics. Organs including duodenum, heart, kidney, liver, lung, and spleen were resected from the mice and fixed with 10% buffered Formalin. The fixed tissues were processed with standard procedure for H and E staining. A pathology expert Dr. Carman Tomos at the Memorial Sloan-Kettering Cancer Center examined kidney tissues and gave a toxicity grade to each kidney tissue sample. The grading was based on the general pathology guidelines for kidney toxicity.

[2] = tested on: Lewis Lung cells; assay: murine Lewis lung tumor metastasis model (lung tumor weight); assay type: in vivo, C57B1/6 mice
[3] = Pharmacokinetics and organ distribution of ip and iv injected L-CDDP and CDDP (platinum by ICP-MS); assay type: in vivo, ICR mice; settings: 8 mg/kg
Method: Pharmacokinetics and organ distribution in animals of ip and iv injected lipid-based cisplatin and cisplatin (Part II). Sixty ICR mice (female, 7 weeks old) were divided into 4 groups. They received intraperitoneal or intravenous injection of L-CDDP or CDDP, separately. The dose was 12 mg/kg for ip L-CDDP and 8 mg/kg for the rest of treatment groups. At each designed time point, three to four mice were anaesthetized with 70 mg/kg of Nembutal ip (e.g., 3, 20, and 40 min, and 2, 8, 24, 48, and 72 h). […] Organs including liver, lung, and spleen were resected from the mice. The organ samples were homogenized in distilled water (4-fold of the sample weight) and digested with nitric acid. The platinum concentration in each sample was measured by Inductively Coupled Plasma-Mass Spectrometer (ICP-MS). The pharmacokinetics profiles (FIGS. 4, 5, and 6, all Y-axes are concentration of μg platinum in one gram of tissue or fluid per mg of injected dose) and parameters (Table 4) of each formulation were simulated and calculated.

## N.N.[Cl][Pt][Cl] [CDDP, cis diamminedichloroplatinum]
[1]; ip, p=0.04
  increase of BUN level compared with normal controls: 2.1 fold
[1]; iv, p=0.008
  increase of BUN level compared with normal controls: 6.8 fold
[2]; inhalation therapy, nebulized 1 mg/ml, days 5, 8 and 11
  inhibition of growth of Lewis lung tumors: did not significantly inhibit
[2]; three iv doses of 2 mg/kg on days 5, 8 and 11 post tumor cell injection
  inhibition of tumor growth (Lewis lung tumor weight vs saline): no significant inhibition of tumor growth
[3]; Liver
  AUC: 19.96 µg·h/g/µg
[3]; Lung
  AUC: 5.58 µg·h/g/µg
[3]; Spleen
  AUC: 8.11 µg·h/g/µg
